Data taken from patent US6235929A, “Tripeptide α-ketoamides” (Georgia Tech Research Corporation, priority 1996, dated 2001).

Legend:
[1] = Half-life in plasma; conditions: unit inferred, unit assumed
[2] = molecular target: Calpain II from rabbit muscle; assay: Calpain II inhibition, Suc-Leu-Tyr-AMC hydrolysis; assay type: biochemical
Description: HEPES, heparin, and A23187 were obtained from Calbiochem. […] Calpain II from rabbit muscle and cathepsin B were purchased from Sigma. Papain was purchased from Calbiochem.
(§1) Peptide α-ketoamides were assayed as reversible enzyme inhibitors. Various concentrations of inhibitors in Me2 SO were added to the assay mixture which contained buffer and substrate. The reaction was started by the addition of the enzyme and the hydrolysis rates were followed spectrophotometrically or fluorimetrically.
(§2) Calpain I from human erythrocytes and calpain II from rabbit were assayed using Suc-Leu-Tyr-AMC [Sasaki et al., J. Biol. Chem. 259, 12489-12494 (1984); incorporated herein by reference], and the AMC (7-amino-4-methylcoumarin) release was followed fluorimetrically (excitation at 380 nm, and emmision at 460 nm). Calpains were assayed in 25 mM Tris pH=8.0, 10 mM CaCl2. Fluorescence was followed using a Gilson FL-1A fluorometer or a Perkin-Elmer 203 Fluorescence spectrometer. Cathepsin B was assayed in 20 mM sodium acetate pH=5.2, 0.5 mM dithiothreitol using Bz-Phe-Val-Arg-p-nitroanilide as substrate. Alternately, cathepsin B was assayed with Z-Arg-Arg-AFC [Barrett and Kirschke, Methods Enzymol. […] Enzymatic hydrolysis rates were measured at various substrate and inhibitor concentrations, and KI values were determined by either Lineweaver-Burk plots or Dixon plots. […]

[3] = Half-life in liver; assay type: in vitro ADME; conditions: unit inferred, unit assumed
[4] = molecular target: T1, Calpain I from human erythrocytes (Homo sapiens, UniProt P07384); assay: Calpain I inhibition, Suc-Leu-Tyr-AMC hydrolysis; assay type: biochemical; conditions: ratio of KI values
T1 construct: Calpain I was purified from human erythrocytes; from tissue; host or cells: human erythrocytes
T1 sequence (P07384 1-714): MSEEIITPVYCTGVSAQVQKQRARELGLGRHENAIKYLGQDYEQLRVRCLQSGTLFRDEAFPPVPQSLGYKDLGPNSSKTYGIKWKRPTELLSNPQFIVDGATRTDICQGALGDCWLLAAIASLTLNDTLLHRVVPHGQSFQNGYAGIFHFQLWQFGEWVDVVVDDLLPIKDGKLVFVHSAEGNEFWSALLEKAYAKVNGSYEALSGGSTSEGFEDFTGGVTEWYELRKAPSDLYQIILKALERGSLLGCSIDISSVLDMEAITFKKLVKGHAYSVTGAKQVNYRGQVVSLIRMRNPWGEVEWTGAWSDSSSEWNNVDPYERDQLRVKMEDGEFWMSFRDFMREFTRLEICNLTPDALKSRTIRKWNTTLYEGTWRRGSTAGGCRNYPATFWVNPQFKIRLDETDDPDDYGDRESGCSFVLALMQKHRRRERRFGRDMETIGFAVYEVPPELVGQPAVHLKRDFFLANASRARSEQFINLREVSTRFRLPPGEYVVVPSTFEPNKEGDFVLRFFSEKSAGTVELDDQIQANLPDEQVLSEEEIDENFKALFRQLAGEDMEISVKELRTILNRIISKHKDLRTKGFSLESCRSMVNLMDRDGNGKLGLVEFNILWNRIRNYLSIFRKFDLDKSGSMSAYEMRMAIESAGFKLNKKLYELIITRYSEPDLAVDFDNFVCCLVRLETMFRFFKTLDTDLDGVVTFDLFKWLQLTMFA
T1 sequence (P04632 1-268 partner): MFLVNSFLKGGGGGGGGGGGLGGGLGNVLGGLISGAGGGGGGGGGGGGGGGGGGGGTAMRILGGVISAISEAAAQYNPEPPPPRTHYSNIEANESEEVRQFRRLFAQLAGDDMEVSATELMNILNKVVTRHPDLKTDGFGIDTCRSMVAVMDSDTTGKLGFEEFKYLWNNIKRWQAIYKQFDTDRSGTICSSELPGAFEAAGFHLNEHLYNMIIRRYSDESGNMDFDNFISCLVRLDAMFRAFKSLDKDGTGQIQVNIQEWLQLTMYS
Description: (§3) HEPES, heparin, and A23187 were obtained from Calbiochem. Suc--Leu--Tyr--AMC and chromogenic substrates were obtained from Sigma Calpain I was purified from human erythrocytes according to the method of Kitahara (Kitahara et al., J. Biochem. 95, 1759-1766) omitting the Blue-Sepharose step. Calpain II from rabbit muscle and cathepsin B were purchased from Sigma. Papain was purchased from Calbiochem.
as §1
as §2, with “spectrometer.” for “spectrometer. Cathepsin B was assayed in 20 mM sodium acetate pH=5.2, 0.5 mM dithiothreitol using Bz-Phe-Val-Arg-p-nitroanilide as substrate. Alternately, cathepsin B was assayed with Z-Arg-Arg-AFC [Barrett and Kirschke, Methods Enzymol.”

[5] = molecular target: T2, cathepsin B (Homo sapiens, UniProt P07858); assay: Cathepsin B inhibition; assay type: biochemical
T2 construct: purchased Sigma
Description: as §3, §1
as §2, with “spectrometer.” for “spectrometer. Cathepsin B was assayed in 20 mM sodium acetate pH=5.2, 0.5 mM dithiothreitol using Bz-Phe-Val-Arg-p-nitroanilide as substrate. Alternately, cathepsin B was assayed with Z-Arg-Arg-AFC [Barrett and Kirschke, Methods Enzymol.”

| t1/2 plasma [1] [h] | t1/2 liver [3] [h] | Compound | also measured |
| --- | --- | --- | --- |
| 0.417 |  | CCOC(=O)C(=O)[C@H](CC)NC(=O)[C@H](CC(C)C)NC(=O)[C@H](CC(C)C)NC(=O)c1ccc2ccccc2c1 [2-NapCO-Leu-Leu-Abu-COOEt] |  |
| > 1 |  | CCOC(=O)C(=O)C(CC)NC(=O)C(CC(C)C)NC(=O)C(CC(C)C)NS(=O)(=O)c1ccc2ccccc2c1 (stereo not drawn) [2-NapSO2-Leu-Leu-Abu-COOEt, reference compound] |  |
|  |  | CC[C@H](NC(=O)[C@H](CC(C)C)NC(=O)OCc1ccccc1)C(=O)C(=O)NCCc1ccccc1 [Z-Leu-Abu-CONH--(CH2)2 -Ph, Z--Leu--Abu--CONH--(CH2)2 Ph] | KI Calpain II [2]: best inhibitor |
| > 1 | > 1 | CCC(NC(=O)C(CC(C)C)NC(=O)OCc1ccccc1)C(=O)C(=O)NCc1ccccc1 (stereo not drawn) [Z-Leu-Abu-CONH-Bzl, Z--Leu--Abu--CONH--Bzl] |  |
| > 1 | > 1 | CCNC(=O)C(=O)[C@H](CC)NC(=O)[C@H](CC(C)C)NC(=O)OCc1ccccc1 [Z-Leu-Abu-CONH-Et, Z--Leu--Abu--CONH--Et] | fold better inhibitor of calpain I than Z--Leu--Phe--CONH--Et [4]: 14 fold; KI Cath B [5]: best inhibitor |
| > 1 |  | CCC(NC(=O)C(CC(C)C)NC(=O)OCc1ccccc1)C(=O)C(=O)NCC(C)C (stereo not drawn) [Z-Leu-Abu-CONH-iBu, Z--Leu--Abu--CONH--iBu] |  |
| > 1 | > 1 | CCCCNC(=O)C(=O)C(CC)NC(=O)C(CC(C)C)NC(=O)OCc1ccccc1 (stereo not drawn) [Z-Leu-Abu-CONH-nBu, Z--Leu--Abu--CONH--nBu] |  |
| > 1 | > 1 | CCCNC(=O)C(=O)[C@H](CC)NC(=O)[C@H](CC(C)C)NC(=O)OCc1ccccc1 [Z-Leu-Abu-CONH-nPr, Z--Leu--Abu--CONH--nPr] |  |
| 0.0467 |  | CCOC(=O)C(=O)[C@H](CC)NC(=O)[C@H](CC(C)C)NC(=O)OCc1ccccc1 [Z-Leu-Abu-COOEt, reference compound] |  |
| > 1 | > 1 | CCC(NC(=O)C(CC(C)C)NC(=O)OCc1ccccc1)C(=O)C(=O)O (stereo not drawn) [Z-Leu-Abu-COOH, reference compound] |  |
| 0.133 |  | CCOC(=O)C(=O)C(CCSC)NC(=O)C(CC(C)C)NC(=O)OCc1ccccc1 (stereo not drawn) [Z-Leu-Met-COOEt] |  |
| 0.0617 |  | CCCCC(NC(=O)C(CC(C)C)NC(=O)OCc1ccccc1)C(=O)C(=O)OCC (stereo not drawn) [Z-Leu-Nle-COOEt, reference compound] |  |
| 0.0467 |  | CCCC(NC(=O)C(CC(C)C)NC(=O)OCc1ccccc1)C(=O)C(=O)OCC (stereo not drawn) [Z-Leu-Nva-COOEt, reference compound] |  |
| > 1 |  | CC(C)C[C@H](NC(=O)OCc1ccccc1)C(=O)N[C@@H](Cc1ccccc1)C(=O)C(=O)NCCc1ccccc1 [Z-Leu-Phe-CONH(CH2)2 Ph, Z--Leu--Phe--CONH--(CH2)2 Ph] |  |
| > 1 | > 1 | CCNC(=O)C(=O)[C@H](Cc1ccccc1)NC(=O)[C@H](CC(C)C)NC(=O)OCc1ccccc1 [Z-Leu-Phe-CONH-Et, Z--Leu--Phe--CONH--Et] |  |
| > 1 |  | CC(C)CNC(=O)C(=O)[C@H](Cc1ccccc1)NC(=O)[C@H](CC(C)C)NC(=O)OCc1ccccc1 [Z-Leu-Phe-CONH-iBu, Z--Leu--Phe--CONH--iBu] |  |
| > 1 | > 1 | CCCCNC(=O)C(=O)C(Cc1ccccc1)NC(=O)C(CC(C)C)NC(=O)OCc1ccccc1 (stereo not drawn) [Z-Leu-Phe-CONH-nBu, Z--Leu--Phe--CONH--nBu] |  |
| > 1 | > 1 | CCCNC(=O)C(=O)C(Cc1ccccc1)NC(=O)C(CC(C)C)NC(=O)OCc1ccccc1 (stereo not drawn) [Z-Leu-Phe-CONH-nPr, Z--Leu--Phe--CONH--nPr] |  |
| 0.0317 |  | CC(C)CC(NC(=O)OCc1ccccc1)C(=O)NC(Cc1ccccc1)C(=O)C(=O)OCc1ccccc1 (stereo not drawn) [Z-Leu-Phe-COOBz] |  |
| 0.13 |  | CCOC(=O)C(=O)C(Cc1ccccc1)NC(=O)C(CC(C)C)NC(=O)OCc1ccccc1 (stereo not drawn) [Z-Leu-Phe-COOEt, Z--Leu--Phe--COOEt, reference compound] |  |
| > 1 | > 1 | CC(C)CC(NC(=O)OCc1ccccc1)C(=O)NC(Cc1ccccc1)C(=O)C(=O)O (stereo not drawn) [Z-Leu-Phe-COOH, reference compound] |  |
| 0.128 |  | CCCCOC(=O)C(=O)[C@H](Cc1ccccc1)NC(=O)[C@H](CC(C)C)NC(=O)OCc1ccccc1 [Z-Leu-Phe-COOnBu] |  |
